In US6921821B2, “Antagonists of melanin concentrating hormone receptor” (Abbott Laboratories, priority 2002, dated 2005):
Where a name gives a salt, the structure may show the parent alone.

What follows are compounds tested against MCH-R1 (Mus musculus, UniProt Q8JZL2) (assay: MCH-R1 antagonist activity, comparison of stereoisomers (assay not specified)). Conditions: qualitative comparison of isomers.
Sequence of MCH-R1 (Q8JZL2 whole entry): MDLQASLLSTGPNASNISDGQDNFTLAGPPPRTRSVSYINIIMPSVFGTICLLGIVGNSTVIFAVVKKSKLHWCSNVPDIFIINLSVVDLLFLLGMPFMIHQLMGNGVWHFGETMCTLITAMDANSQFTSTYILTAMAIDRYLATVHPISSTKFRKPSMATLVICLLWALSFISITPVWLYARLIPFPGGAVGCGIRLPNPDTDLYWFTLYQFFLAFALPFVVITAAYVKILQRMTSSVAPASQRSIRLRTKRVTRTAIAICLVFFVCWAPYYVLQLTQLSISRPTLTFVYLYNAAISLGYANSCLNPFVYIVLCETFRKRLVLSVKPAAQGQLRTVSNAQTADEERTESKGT
`C[C@H](c1ccc2ccccc2c1)N1CCC(Nc2cc(=O)oc3ccc(Cl)cc23)CC1` [II-119, (R)-6-Chloro-4-[1-(1-naphthalen-2-yl-ethyl)-piperdin-4-ylamino]-chromen-2-one] was tested, and the “MCH-R1 antagonist activity, relative between stereoisomers” value was “more active than II-120”. In the case of `O=c1cc(NC2CC3CCC(C2)N3Cc2ccc3c(c2)OCO3)c2cc(Cl)ccc2o1` (stereo not drawn) [II-122, (exo)-4-(8-Benzo[1,3]dioxol-5-ylmethyl-8-aza-bicyclo[3.2.1]oct-3-ylamino)-6-chloro-chromen-2-one], the “MCH-R1 antagonist activity, relative between stereoisomers” value is reported as “more active than the endo isomer II-123”.

Each compound was assayed against T1, murine MCHR (Mus musculus, UniProt Q8JZL2) (assay: Assay for release of intracellular calcium (FLIPR, Fluo-4), inhibition of MCH-induced Ca++ flux). Conditions: test compound at a dose of 10 μM, HEK293 cells expressing the murine MCHR, read-out: inhibition of MCH (MCH induced Ca++ flux / fluorescence).
T1 construct: expressed in transfected cells; host or cells: HEK293
T1 sequence (Q8JZL2 whole entry): as above
Format: cell-based
Method in brief: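 HEK293 cells expressing murine MCHR were loaded with Fluo-4AM (2.5 μM) and given compound (40 μM stock in 4% DMSO), with 3 min monitoring for agonism. They were then challenged with mouse MCH (12 nM as added) and FLIPR fluorescence followed 3 min more. % inhibition of MCH-induced Ca++ flux was calculated against baseline and no-compound signals.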
`C=Cc1ccc2oc(=O)cc(NC3CCN(Cc4ccc5ocnc5c4)CC3)c2c1` [II-100, 4-(1-Benzooxazol-5-ylmethyl-piperidin-4-ylamino)-6-vinyl-chromen-2-one] was tested, and the inhibition at 10 µM was at least 50%. With `O=c1cc(NC2CCN(Cc3ccc4c(c3)OCO4)CC2)c2cc(OC(F)F)ccc2o1` [II-125, 4-(1-Benzo[1,3]dioxol-5-ylmethyl-piperidin-4-ylamino)-6-difluoromethoxy-chromen-2-one] the inhibition at 10 µM was at least 50%. Compound `O=c1cc(NC2CCN(Cc3ccc4c(c3)OCO4)CC2)c2cc(Cl)ccc2n1Cc1ccncc1` [Compound V-4, 4-(1-Benzo[1,3]dioxol-5-ylmethylpiperidin-4-ylamino)-6-chloro-1-pyridin-4-ylmethyl-1H-quinolin-2-one] has an inhibition at 10 µM of at least 50%. In the case of `COC(=O)c1c(NC2CCN(Cc3ccc4ccccc4c3)CC2)c2cc(Cl)ccc2[nH]c1=O` [Compound V-37, 6-Chloro-4-(1-naphthalen-2-ylmethyl-piperidin-4-ylamino)-2-oxo-1,2-dihydro-quinoline-3-carboxylic acid methyl ester], the inhibition at 10 µM is reported as at least 50%. With `O=c1cc(NC2CCN(Cc3ccc4c(c3)OCO4)CC2)c2cc(Cl)ccc2n1CC(F)(F)F` [Compound V-7, 4-(1-Benzo[1,3]dioxol-5-ylmethylpiperidin-4-ylamino)-6-chloro-1-(2,2,2-trifluoroethyl)-1H-quinolin-2-] the inhibition at 10 µM was at least 50%. For `CCn1ccc2cc(CN3CCC(Nc4cc(=O)oc5ccc(OC)cc45)CC3)ccc21` [II-33, 6-Methoxy-4-[N-ethylindole-5-ylmethyl-piperidin-4-ylamino]-chromen-2-one], the inhibition at 10 µM was at least 50%. In the case of `NC(=O)c1cccc(CN2CCC(Nc3cc(=O)oc4ccc(Cl)cc34)CC2)c1` [II-99, 3-[4-(6-Chloro-2-oxo-2H-chromen-4-ylamino)-piperidin-1-ylmethyl]-benzamide], the inhibition at 10 µM is reported as at least 50%. Compound `O=c1cc(NC2CCN(Cc3ccc4ocnc4c3)CC2)c2cc(Cl)ccc2o1` [II-95, 4-{1-Benzooxazol-5-ylmethyl-piperidin-4-ylamino)-6-chloro-chromen-2-one] has an inhibition at 10 µM of at least 50%. `COc1ccc2oc(=O)cc(NC3CCN(Cc4ccc5ccccc5c4)CC3)c2c1` [II-19, 6-Methoxy-4-(1-naphthalen-2-ylmethyl-piperidin-4-ylamino)-chromen-2-one trifluoroacetate] gave an inhibition at 10 µM of at least 50%. `O=c1cc(NC2CCN(Cc3ccncc3)CC2)c2cc(Cl)ccc2n1Cc1ccncc1` [Compound V-35, 6-Chloro-1-pyridin-4-ylmethyl-4-(1-pyridin-4-ylmethyl-piperidin-4-ylamino)-1H-quinolin-2-one] was tested, and the inhibition at 10 µM was at least 50%. `Cc1cc(C)c2oc(=O)cc(NC3CCN(Cc4ccc5c(c4)OCO5)CC3)c2c1` [II-98, 4-(1-Benzo[1,3]dioxol-5-ylmethyl-piperidin-4-ylamino)-6,8-dimethyl-chromen-2-one] showed an inhibition at 10 µM of at least 50%. In the case of `N#Cc1c(NC2CCN(Cc3ccc4occc4c3)CC2)c2cc(Cl)ccc2[nH]c1=O` [Compound V-23, 4-(1-Benzofuran-5-ylmethyl-piperidin-4-ylamino)-6-chloro-2-oxo-1,2-dihydro-quinoline-3-carbonitrile], the inhibition at 10 µM is reported as at least 50%. Work on `COc1ccc2oc(=O)cc(NC3CCN(Cc4ccc5ncccc5c4)CC3)c2c1` [II-112, 6-Methoxy-4-(1-quinolin-6-ylmethyl-piperidin-4-ylamino)-chromen-2-one] yielded an inhibition at 10 µM of at least 50%. `O=c1cc(NC2CCN(Cc3ccc4c(c3)OCO4)CC2)c2cc(Cl)ccc2n1Cc1cc[n+]([O-])cc1` [Compound V-19, 4-(1-Benzo[1,3]dioxol-5-ylmethyl-piperidin-4-ylamino)-6-chloro-1-(1-oxy-pyridin-4-ylmethyl)-1H-quinolin-2-one] gave an inhibition at 10 µM of at least 50%. With `O=c1cc(NC2CCN(Cc3ccc4ccccc4c3)CC2)c2cc(Cl)ccc2o1` [II-2, 6—Chloro-4-(1-naphthalen-2-ylmethyl-piperidin-4-ylamino)-chromen-2-one] the inhibition at 10 µM was at least 50%. `CCc1ccc2c(c1)c(NC1CCN(C(C)c3ccc4c(c3)OCO4)CC1)cc(=O)n2CC` (centres unmarked) [Compound V-18, 4-[1-(1-Benzo[1,3]dioxol-5-yl-ethyl)-piperidin-4-ylamino]-1,6-diethyl-1H-quinolin-2-one] gave an inhibition at 10 µM of at least 50%. For `CC(c1ccc2c(c1)OCO2)N1CCC(Nc2cc(=O)oc3ccc(Cl)cc23)CC1` (centres unmarked) [II-60, 4-[1-(1-Benzo[1,3]dioxol-5-yl-ethyl)-piperidin-4-ylamino]-6-chloro-chromen-2-one], the inhibition at 10 µM was at least 50%. `CC(c1ccc2c(c1)OCO2)N1CCC(Nc2c(C(=O)N(C)C)c(=O)n(C)c3ccc(Cl)cc23)CC1` (centres unmarked) [Compound V-34, 4-[1-(1-Benzo[1,3]dioxol-5-yl-ethyl)-piperidin-4-ylamino]-6-chloro-1-methyl-2-oxo-1,2-dihydro-quinoline-3-carboxylic acid dimethylamide] was tested, and the inhibition at 10 µM was at least 50%. `COc1ccc2oc(=O)c(Cl)c(NC3CCN(Cc4ccc5c(c4)OCO5)CC3)c2c1` [II-90, 4-(1-Benzo[1,3]dioxol-5-ylmethyl-piperidin-4-ylamino)-3-chloro-6-methoxy-chromen-2-one] showed an inhibition at 10 µM of at least 50%. Compound `O=c1cc(NC2CCN(Cc3ccc4c(c3)OCO4)CC2)c2cc(Cl)ccc2[nH]1` [Compound V-11, 4-(1-Benzo[1,3]dioxol-5-ylmethyl-piperidin-4-ylamino)-6-chloro-1H-quinolin-2-one] has an inhibition at 10 µM of at least 50%. `Cn1c(=O)c(C(=O)N2CCCC2)c(NC2CCN(Cc3ccc4c(c3)OCO4)CC2)c2cc(Cl)ccc21` [Compound V-59, 4-(1-Benzo[1,3]dioxol-5-ylmethyl-piperidin-4-ylamino)-6-chloro-1-methyl-3-(pyrrolidine-1-carbonyl)-1H-quinolin-2-one] gave an inhibition at 10 µM of at least 50%. `O=c1cc(NC2CCN(Cc3cc(Cl)c4occc4c3)CC2)c2cc(Cl)ccc2o1` [II-93, 6-Chloro-4-[1-(7-chloro-benzofuran-5-ylmethyl)-piperidin-4-ylamino]-chromen-2-one] was tested, and the inhibition at 10 µM was at least 50%. Compound `COc1ccc2oc(=O)cc(NC3CCN(Cc4ccc5c(c4)OCO5)CC3)c2c1` [II-1, 4-(1-Benzo[1,3]dioxol-5-ylmethyl-piperidin-4-ylamino)-6-methoxy-chromen-2-one] has an inhibition at 10 µM of at least 50%. `COc1ccc2oc(=O)cc(NC3CCN(Cc4ccc5c(c4)OC(F)(F)O5)CC3)c2c1` [II-68, 4-[1-(2,2-Difluoro-benzo[1,3]dioxol-5-ylmethyl)-piperidin-4-ylamino]-6-methoxy-chromen-2-one trifluoroacetate] showed an inhibition at 10 µM of at least 50%.
